Test results from ChEMBL document CHEMBL1134102, “The binding of arylguanidines at 5-HT(3) serotonin receptors: a structure-affinity investigation” (Bioorg Med Chem Lett, 2001).

Molecular target: Serotonin 3 (5-HT3) receptor
Experiment: Binding affinity to 5-HT3 serotonin receptor in NG 108-15 neuroblastoma glioma cells using [3H]GR-65630 radioligand.

Compound | Ki [nM]
Nc1nc(Nc2cccc(Cl)c2)n[nH]1 | > 10000
C/N=C(\N)Nc1cccc(Cl)c1 | 450
Clc1cccc(NC2=NCCN2)c1 | > 10000
Cc1ccc(NC(=N)N=C(N)N)cc1 | 890
COc1ccc(NC(=N)N)cc1 | 990
C/N=C(\NC)Nc1cccc(Cl)c1 | > 10000
N=C(N)Nc1ccc(Cl)cc1 | 326
CN(C(=N)N)c1cccc(Cl)c1 | 6200
COc1ccc(NC(=N)N)cc1OC | 2710
Cc1ccc(NC(=N)N)cc1 | 442
N=C(N)Nc1ccc2c(c1)OCO2 | 274
NC(N)=Nc1cccc(C(F)(F)F)c1 | 2440
N=C(N)NC(=N)Nc1ccc(Cl)cc1 [4-CHLOROPHENYLBIGUANIDE] | 210

The remaining molecules from weak to strong by Ki, led by results:

Ki [nM] | Compound
230 | N=C(N)Nc1ccc(C(F)(F)F)cc1
36 | N=C(N)Nc1ccc(Cl)c(C(F)(F)F)c1
32 | NC(N)=Nc1cccc(Cl)c1
18 | N=C(N)NC(=N)Nc1cccc(Cl)c1
18 | NC(N)=Nc1ccc2ccccc2c1
14 | N=C(N)N=C(N)Nc1ccc2ccccc2c1
12 | N=C(N)NC(=N)Nc1ccc(Cl)c(Cl)c1
5 | N=C(N)Nc1cc(Cl)cc(Cl)c1
3.1 | N=C(N)Nc1ccc(Cl)c(Cl)c1
2.7 | N=C(N)NC(=N)Nc1cc(Cl)c(Cl)c(Cl)c1
1.8 | N=C(N)N=C(N)Nc1cc(Cl)cc(Cl)c1
0.7 | N=C(N)Nc1cc(Cl)c(Cl)c(Cl)c1
